pEC50: −log10 of the molar value. Read-outs that look alike come from different tables or passages of the source.
Assays:
[1] = target: CfEcR-DEF mutant V128F/A110P (Choristoneura fumiferana, UniProt O77255, A393P/V411F); test: cell-based; conditions: mutant V128F/A110P
Method: (§1) This construct was prepared in the same way as in switch 1.1 above except wild-type CfEcR-DEF was replaced with mutant CfEcR-DEF comprising a ligand binding domain comprising a substitution mutation selected from Table 1 below.
(§2) DNAs were transfected into mouse NIH3T3 cells (ATCC) as follows. Standard methods for culture and maintenance of the cells were followed. Cells were harvested and plated 96-well plates at 2,500 cells per well, in 50 μL of growth medium containing 10% fetal bovine serum (FBS). Twenty-four hours later, the cells were treated with 35 μL of serum-free growth medium containing either dimethylsulfoxide (DMSO; control) or a DMSO solution of ligand. The cells were then transfected using Superfect (Qiagen Inc.) transfection reagent. For each well, 0.625 μL of Superfect was mixed with 14.2 μL of serum-free growth medium. 0.16 μg of reporter construct and 0.04 μg of each receptor construct were added to the transfection reagent mix. The contents of the transfection mix were mixed in a vortex mixer and let stand at room temperature for 30 minutes. At the end of incubation, 15 μL of transfection mix was added to the cells. The cells were maintained at 37° C. and 5% CO2 for 48 hours in 5% FBS.
(§3) Reporter Assays: Cells were harvested 40 hours after adding ligands. 125 μL of passive lysis buffer (part of Dual-Luciferase reporter assay system from Promega Corporation) were added to each well of the […] plate. The plates were placed on a rotary shaker for 15 minutes. Twenty μL of lysate were assayed. Luciferase activity was measured using Dual-Luciferase reporter assay system from Promega Corporation following the manufacturer's instructions. Fold induction (FI) activities were calculated by dividing relative light units (“RLU”) in ligand treated cells with RLU in DMSO treated cells (untreated control).

CfEcR-DEF mutant V96S = CfEcR-DEF mutant V96S (Choristoneura fumiferana, UniProt O77255, V379S); test: cell-based
Method: as §1, §2, §3

CfEcR-DEF mutant R95H = CfEcR-DEF mutant R95H (Choristoneura fumiferana, UniProt O77255, R378H); test: cell-based
Method: as §1, §2, §3

[2] = target: CfEcR-DEF mutant V107I/Y127E/A110P (Choristoneura fumiferana, UniProt O77255, A393P/V390I/Y410E); test: cell-based
Method: as §1, §2, §3

CfEcR-DEF mutant F48L = CfEcR-DEF mutant F48L (Choristoneura fumiferana, UniProt O77255, F331L); test: cell-based
Method: as §1, §2, §3

CfEcR-DEF mutant F48W = CfEcR-DEF mutant F48W (Choristoneura fumiferana, UniProt O77255, F331W); test: cell-based
Method: as §1, §2, §3

CfEcR-DEF mutant W238E = CfEcR-DEF mutant W238E (Choristoneura fumiferana, UniProt O77255, W521E); test: cell-based
Method: as §1, §2, §3

CfEcR-DEF mutant V96E = CfEcR-DEF mutant V96E (Choristoneura fumiferana, UniProt O77255, V379E); test: cell-based
Method: as §1, §2, §3

CfEcR-DEF mutant Y120M = CfEcR-DEF mutant Y120M (Choristoneura fumiferana, UniProt O77255, Y403M); test: cell-based
Method: as §1, §2, §3

CfEcR-DEF mutant F109M = CfEcR-DEF mutant F109M (Choristoneura fumiferana, UniProt O77255, F392M); test: cell-based
Method: as §1, §2, §3

CfEcR-DEF mutant T52P = CfEcR-DEF mutant T52P (Choristoneura fumiferana, UniProt O77255, T335P); test: cell-based
Method: as §1, §2, §3

CfEcR-DEF mutant V128F = CfEcR-DEF mutant V128F (Choristoneura fumiferana, UniProt O77255, V411F); test: cell-based
Method: as §1, §2, §3

CfEcR-DEF mutant F48Y = CfEcR-DEF mutant F48Y (Choristoneura fumiferana, UniProt O77255, F331Y); test: cell-based
Method: as §1, §2, §3

CfEcR-DEF mutant A110N = CfEcR-DEF mutant A110N (Choristoneura fumiferana, UniProt O77255, A393N); test: cell-based
Method: as §1, §2, §3

CfEcR-DEF mutant L132M = CfEcR-DEF mutant L132M (Choristoneura fumiferana, UniProt O77255, L415M); test: cell-based; type: cell-based; conditions: for Rel Max FI: mutant L132M; for Emax: NIH3T3, 40 h, read-out: Rel Max FI, mutant L132M
Method: as §1, §2, §3

[3] = target: CfEcR-DEF mutant V107I/Y127E/G (Choristoneura fumiferana, UniProt O77255, INS541G/V390I/Y410E); test: GAL4-driven luciferase reporter assay in NIH3T3 cells; type: cell-based
Method: as §1
The Gal-4-CfEcR-DEF(VYG) mutant was created by inserting an extra glycine at the C-terminal end of EcR substitution mutant V107I/Y127E [CfECR(VY)] by PCR. Essentially, this was done in two steps: PCR-amplification of CfEcR-DEF(VYG) and substitution of the CfEcR(VY) in the vector GAL4-CfEcR DEF(VY) pBIND 1-9 with the PCR-amplified CfEcR-DEF(VYG). The CfEcR-DEF region (with the extra glycine) was amplified by using the vector GAL4-CfEcR DEF(VY) pBIND 1-9 as template and the following PCR primers: […]
as §2, §3

[4] = relative to max fold induction of GS-E ligand
[5] = NIH3T3, 40 h, read-out: Rel Max FI

CfEcR-DEF mutant A110N, sequence (O77255 entry or part of it A393N): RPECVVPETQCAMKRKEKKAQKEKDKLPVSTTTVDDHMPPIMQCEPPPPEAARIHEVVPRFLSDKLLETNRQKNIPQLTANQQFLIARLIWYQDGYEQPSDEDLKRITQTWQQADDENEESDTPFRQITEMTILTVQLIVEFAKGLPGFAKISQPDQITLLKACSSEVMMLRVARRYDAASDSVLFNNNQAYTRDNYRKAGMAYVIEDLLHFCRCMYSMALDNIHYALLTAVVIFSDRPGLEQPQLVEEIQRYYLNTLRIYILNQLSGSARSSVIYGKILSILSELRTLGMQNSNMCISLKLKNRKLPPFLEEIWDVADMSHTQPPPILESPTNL
CfEcR-DEF mutant A110N, sequence (P28702 299-449, stated change not applied, further chain): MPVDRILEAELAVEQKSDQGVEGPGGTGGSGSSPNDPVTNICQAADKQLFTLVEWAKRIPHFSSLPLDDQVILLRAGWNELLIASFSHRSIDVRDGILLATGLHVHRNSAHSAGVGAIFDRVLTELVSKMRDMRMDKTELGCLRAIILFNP
CfEcR-DEF mutant F109M, sequence (O77255 entry or part of it F392M): as the sequence (O77255 entry or part of it A393N) above, with F186M, N187A counted along it
CfEcR-DEF mutant F109M, sequence (P28702 299-449, further chain): as the sequence (P28702 299-449, stated change not applied, further chain) above
CfEcR-DEF mutant T52P, sequence (P28702 298-449): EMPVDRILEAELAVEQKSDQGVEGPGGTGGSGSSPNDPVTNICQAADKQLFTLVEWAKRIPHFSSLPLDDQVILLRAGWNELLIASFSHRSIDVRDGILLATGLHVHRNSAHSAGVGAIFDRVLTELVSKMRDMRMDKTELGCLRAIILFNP
CfEcR-DEF mutant T52P, sequence (O77255 entry or part of it T335P): as the sequence (O77255 entry or part of it A393N) above, with T129P, N187A counted along it
CfEcR-DEF mutant Y120M, sequence (O77255 entry or part of it Y403M): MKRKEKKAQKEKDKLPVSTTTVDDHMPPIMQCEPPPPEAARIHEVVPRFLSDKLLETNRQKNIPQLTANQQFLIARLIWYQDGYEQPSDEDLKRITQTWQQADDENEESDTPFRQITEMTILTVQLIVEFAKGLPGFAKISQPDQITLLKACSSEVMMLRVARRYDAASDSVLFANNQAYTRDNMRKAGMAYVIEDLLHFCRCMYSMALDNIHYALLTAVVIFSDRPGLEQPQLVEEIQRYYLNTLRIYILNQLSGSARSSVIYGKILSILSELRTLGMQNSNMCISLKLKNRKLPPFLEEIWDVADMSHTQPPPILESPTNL
CfEcR-DEF mutant Y120M, sequence (P28702 299-449, further chain): as the sequence (P28702 299-449, stated change not applied, further chain) above
CfEcR-DEF mutant L132M, sequence (O77255 entry or part of it L415M): as the sequence (O77255 entry or part of it A393N) above, with N187A, L209M counted along it
CfEcR-DEF mutant L132M, sequence (P28702 298-449, further chain): as the sequence (P28702 298-449) above
CfEcR-DEF mutant F48W, sequence (P28702 299-449): as the sequence (P28702 299-449, stated change not applied, further chain) above
CfEcR-DEF mutant F48W, sequence (O77255 entry or part of it F331W): as the sequence (O77255 entry or part of it A393N) above, with F125W, N187A counted along it
CfEcR-DEF mutant V128F/A110P, sequence (P28702 299-449, stated change not applied): as the sequence (P28702 299-449, stated change not applied, further chain) above
CfEcR-DEF mutant V128F/A110P, sequence (O77255 entry or part of it A393P/V411F): as the sequence (O77255 entry or part of it Y403M) above, with A175P, M185Y, V193F counted along it
CfEcR-DEF mutant V107I/Y127E/G, sequence (P28702 299-449, stated change not applied): as the sequence (P28702 299-449, stated change not applied, further chain) above
CfEcR-DEF mutant V107I/Y127E/G, sequence (O77255 entry or part of it V390I/Y410E/INS541G): as the sequence (O77255 entry or part of it Y403M) above, with M185Y counted along it
CfEcR-DEF mutant R95H, sequence (P28702 299-449): as the sequence (P28702 299-449, stated change not applied, further chain) above
CfEcR-DEF mutant R95H, sequence (O77255 entry or part of it R378H): as the sequence (O77255 entry or part of it Y403M) above, with R160H, M185Y counted along it
CfEcR-DEF mutant V128F, sequence (P28702 299-449): as the sequence (P28702 299-449, stated change not applied, further chain) above
CfEcR-DEF mutant V128F, sequence (O77255 entry or part of it V411F): as the sequence (O77255 entry or part of it Y403M) above, with M185Y, V193F counted along it
CfEcR-DEF mutant W238E, sequence (P28702 299-449): as the sequence (P28702 299-449, stated change not applied, further chain) above
CfEcR-DEF mutant W238E, sequence (O77255 entry or part of it W521E): as the sequence (O77255 entry or part of it Y403M) above, with M185Y, W303E counted along it
CfEcR-DEF mutant V107I/Y127E/A110P, sequence (P28702 299-449, stated change not applied): as the sequence (P28702 299-449, stated change not applied, further chain) above
CfEcR-DEF mutant V107I/Y127E/A110P, sequence (O77255 entry or part of it V390I/A393P/Y410E): as the sequence (O77255 entry or part of it Y403M) above, with V172I, A175P, M185Y, Y192E counted along it
CfEcR-DEF mutant F48L, sequence (P28702 299-449): as the sequence (P28702 299-449, stated change not applied, further chain) above
CfEcR-DEF mutant F48L, sequence (O77255 entry or part of it F331L): as the sequence (O77255 entry or part of it Y403M) above, with F113L, M185Y counted along it
CfEcR-DEF mutant V96S, sequence (O77255 entry or part of it V379S): as the sequence (O77255 entry or part of it Y403M) above, with V161S, M185Y counted along it
CfEcR-DEF mutant V96S, sequence (P28702 299-449, further chain): as the sequence (P28702 299-449, stated change not applied, further chain) above
CfEcR-DEF mutant V96E, sequence (O77255 entry or part of it V379E): as the sequence (O77255 entry or part of it Y403M) above, with V161E, M185Y counted along it
CfEcR-DEF mutant V96E, sequence (P28702 299-449, further chain): as the sequence (P28702 299-449, stated change not applied, further chain) above
CfEcR-DEF mutant F48Y, sequence (O77255 entry or part of it F331Y): as the sequence (O77255 entry or part of it A393N) above, with F125Y, N187A counted along it
CfEcR-DEF mutant F48Y, sequence (P28702 299-449, further chain): as the sequence (P28702 299-449, stated change not applied, further chain) above

CC(C)CC[C@@H](O)[C@](C)(O)[C@H]1CC[C@@]2(O)C3=CC(=O)[C@@H]4C[C@@H](O)[C@@H](O)C[C@]4(C)[C@H]3CC[C@]12C [PonA, ponasterone A]
Rel Max FI [1]: 0
pEC50 ([1]; read-out: EC50): < 4.48
Rel Max FI [1, 4]: 0.00
pEC50 (CfEcR-DEF mutant V96S; mutant V96S, read-out: EC50): ~5.70
Rel Max FI (CfEcR-DEF mutant V96S; mutant V96S, relative to max fold induction of GS-E ligand): 0.92
Rel Max FI (CfEcR-DEF mutant R95H; mutant R95H): 0.03
pEC50 (CfEcR-DEF mutant R95H; mutant R95H, read-out: EC50): < 4.48
pEC50 ([2]; mutant V107I/Y127E/A110P, read-out: EC50): < 4.48
Rel Max FI ([2]; mutant V107I/Y127E/A110P, relative to max fold induction of GS-E ligand): 0.01
pEC50 (CfEcR-DEF mutant F48L; mutant F48L, read-out: EC50): ~5.00
Rel Max FI (CfEcR-DEF mutant F48L; mutant F48L, relative to max fold induction of GS-E ligand): 0.59
pEC50 (CfEcR-DEF mutant F48W; mutant F48W, read-out: EC50): ~5.00
Rel Max FI (CfEcR-DEF mutant F48W; mutant F48W, relative to max fold induction of GS-E ligand): 0.65
Rel Max FI (CfEcR-DEF mutant W238E; mutant W238E): 0
pEC50 (CfEcR-DEF mutant W238E; mutant W238E, read-out: EC50): < 4.48
Rel Max FI (CfEcR-DEF mutant V96E; mutant V96E): 0.02
pEC50 (CfEcR-DEF mutant V96E; mutant V96E, read-out: EC50): < 4.48
Rel Max FI (CfEcR-DEF mutant Y120M; mutant Y120M): 0.04
pEC50 (CfEcR-DEF mutant Y120M; mutant Y120M, read-out: EC50): < 4.48
pEC50 (CfEcR-DEF mutant F109M; mutant F109M, read-out: EC50): ~4.70
Rel Max FI (CfEcR-DEF mutant F109M; mutant F109M, relative to max fold induction of GS-E ligand): 0.16
Rel Max FI (CfEcR-DEF mutant T52P; mutant T52P): 0.03
pEC50 (CfEcR-DEF mutant T52P; mutant T52P, read-out: EC50): < 4.48
Rel Max FI (CfEcR-DEF mutant V128F; mutant V128F): 0.03
pEC50 (CfEcR-DEF mutant V128F; mutant V128F, read-out: EC50): < 4.48
pEC50 (CfEcR-DEF mutant F48Y; mutant F48Y, read-out: EC50): ~5.00
Rel Max FI (CfEcR-DEF mutant F48Y; mutant F48Y, relative to max fold induction of GS-E ligand): 0.33
pEC50 (CfEcR-DEF mutant A110N; mutant A110N, read-out: EC50): < 4.48
Rel Max FI (CfEcR-DEF mutant A110N; mutant A110N, relative to max fold induction of GS-E ligand): 0
Rel Max FI (CfEcR-DEF mutant L132M): 0.01
Rel Max FI (CfEcR-DEF mutant L132M; [4]): 0.57
pEC50 ([3]; mutant V107I/Y127E/G, read-out: EC50): 5.78
Rel Max FI ([3]; mutant V107I/Y127E/G, relative to max fold induction of GS-E ligand): 0.67

Cc1cc(C)cc(C(=O)N(NC(=O)c2cccc(C(C)C)c2C)C(C)(C)C)c1 [RG-102362, 3,5-Dimethyl-benzoic acid N-tert-butyl-N′-(3-isopropyl-2-methyl-benzoyl)-hydrazide]
pEC50 (CfEcR-DEF mutant V96S): 5.68
Emax (CfEcR-DEF mutant V96S; [5]): 57%
pEC50 (CfEcR-DEF mutant R95H): 5.46
Emax (CfEcR-DEF mutant R95H; [5]): 62%
pEC50 [2]: 7.00
Emax [2, 5]: 63%
pEC50 (CfEcR-DEF mutant F48L): 6.25
Emax (CfEcR-DEF mutant F48L; [5]): 53%
pEC50 (CfEcR-DEF mutant F48W): 6.11
Emax (CfEcR-DEF mutant F48W; [5]): 51%
pEC50 (CfEcR-DEF mutant W238E): 5.46
Emax (CfEcR-DEF mutant W238E; [5]): 45%
pEC50 (CfEcR-DEF mutant V96E): 5.73
Emax (CfEcR-DEF mutant V96E; [5]): 48%
pEC50 (CfEcR-DEF mutant Y120M): ~5.00
Emax (CfEcR-DEF mutant Y120M; [5]): 13%
pEC50 (CfEcR-DEF mutant F109M): 6.09
Emax (CfEcR-DEF mutant F109M; [5]): 60%
pEC50 (CfEcR-DEF mutant T52P): ~5.22
Emax (CfEcR-DEF mutant T52P; [5]): 11%
pEC50 (CfEcR-DEF mutant V128F; EC50, mutant V128F): < 4.48
Emax (CfEcR-DEF mutant V128F; [5]): 234%
pEC50 (CfEcR-DEF mutant F48Y): 6.23
Emax (CfEcR-DEF mutant F48Y; [5]): 48%
pEC50 (CfEcR-DEF mutant A110N): 6.14
Emax (CfEcR-DEF mutant A110N; [5]): 86%
Emax (CfEcR-DEF mutant L132M): 1%
Emax (CfEcR-DEF mutant L132M; [4]): 66%
pEC50 [3]: 7.22
Emax [3, 5]: 81%

Source: US9163256B2, “Mutant receptors and their use in a nuclear receptor-based inducible gene expression system” (priority 2004, dated 2015)
